Test in all cases: Standardized radiometric kinase assays, percentage of activity at 0.5 μM;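 note: Read-out is ³³P-labelled substrate protein phosphorylated by each kinase, captured on filters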
The target of assay [1] is each individual kinase of the panel (Homo sapiens, UniProt P49137).
Assay [2] addresses each individual kinase of the panel (Homo sapiens, UniProt P54762).
Assay [3] addresses each individual kinase of the panel (Homo sapiens, UniProt O43318).
For assay [4], the target named is each individual kinase of the panel (Homo sapiens, UniProt Q9BZL6).
For assay [5], the target named is each individual kinase of the panel (Homo sapiens, UniProt P28482).
Sequence of each individual kinase of the panel (Homo sapiens, UniProt P28482) (P28482 2-360 limits assumed): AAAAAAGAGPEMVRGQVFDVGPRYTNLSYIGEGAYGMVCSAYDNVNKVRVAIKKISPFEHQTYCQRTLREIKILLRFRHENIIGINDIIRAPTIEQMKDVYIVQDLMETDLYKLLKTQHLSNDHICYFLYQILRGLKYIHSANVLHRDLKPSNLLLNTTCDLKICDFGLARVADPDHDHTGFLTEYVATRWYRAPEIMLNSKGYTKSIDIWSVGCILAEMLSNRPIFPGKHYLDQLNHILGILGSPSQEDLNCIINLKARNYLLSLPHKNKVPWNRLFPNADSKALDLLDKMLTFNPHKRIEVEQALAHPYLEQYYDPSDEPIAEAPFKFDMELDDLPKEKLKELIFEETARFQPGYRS
Assay [6] deals with each individual kinase of the panel (Mus musculus, UniProt P16277).
Sequence of each individual kinase of the panel (Mus musculus, UniProt P16277) (P16277 2-499 limits assumed): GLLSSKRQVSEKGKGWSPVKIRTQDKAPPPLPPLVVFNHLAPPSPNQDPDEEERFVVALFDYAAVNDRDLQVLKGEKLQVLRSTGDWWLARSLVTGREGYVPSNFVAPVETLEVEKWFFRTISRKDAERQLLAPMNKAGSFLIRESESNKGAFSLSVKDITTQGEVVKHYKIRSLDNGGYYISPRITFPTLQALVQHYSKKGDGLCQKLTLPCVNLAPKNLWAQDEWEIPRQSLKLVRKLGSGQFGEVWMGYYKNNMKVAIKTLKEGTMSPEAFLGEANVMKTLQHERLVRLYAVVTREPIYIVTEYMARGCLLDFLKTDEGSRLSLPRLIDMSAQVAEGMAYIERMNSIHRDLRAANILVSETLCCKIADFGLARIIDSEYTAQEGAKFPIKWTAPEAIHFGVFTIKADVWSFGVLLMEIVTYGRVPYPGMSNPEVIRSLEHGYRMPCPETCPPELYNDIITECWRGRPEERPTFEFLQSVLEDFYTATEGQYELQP
Assay [7] addresses each individual kinase of the panel (Homo sapiens, UniProt Q9NWZ3).
Assay [8] deals with each individual kinase of the panel (Homo sapiens, UniProt O14733).
Sequence of each individual kinase of the panel (Homo sapiens, UniProt O14733) (O14733 2-419 limits assumed): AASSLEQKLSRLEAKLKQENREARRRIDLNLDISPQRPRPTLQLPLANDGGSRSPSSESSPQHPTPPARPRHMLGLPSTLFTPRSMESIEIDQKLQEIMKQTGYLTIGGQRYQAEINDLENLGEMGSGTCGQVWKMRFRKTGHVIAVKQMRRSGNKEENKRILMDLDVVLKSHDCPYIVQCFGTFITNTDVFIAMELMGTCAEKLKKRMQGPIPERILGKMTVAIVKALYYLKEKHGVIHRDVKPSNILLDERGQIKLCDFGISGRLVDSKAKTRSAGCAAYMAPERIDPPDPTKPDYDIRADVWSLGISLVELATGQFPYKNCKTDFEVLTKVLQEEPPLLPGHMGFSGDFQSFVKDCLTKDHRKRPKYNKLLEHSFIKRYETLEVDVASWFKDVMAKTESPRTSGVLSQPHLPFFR
Assay [9] has as its target each individual kinase of the panel (Homo sapiens, UniProt P24941).
Assay [10] addresses each individual kinase of the panel (Homo sapiens, UniProt Q13882).
The target in assay [11] is each individual kinase of the panel (Homo sapiens, UniProt P14616).
For assay [12], the target named is each individual kinase of the panel (Homo sapiens, UniProt P80192).
Assay [13] concerns the target each individual kinase of the panel (Homo sapiens, UniProt P23443).
For assay [14], the target named is each individual kinase of the panel (Homo sapiens, UniProt P00533, T790M).
Assay [15] addresses each individual kinase of the panel (Homo sapiens, UniProt P51955).
Assay [16] relates to each individual kinase of the panel.
The target of assay [17] is each individual kinase of the panel (Homo sapiens, UniProt P00519).
The target in assay [18] is each individual kinase of the panel (Homo sapiens, UniProt Q15303).
For assay [19], the target named is each individual kinase of the panel (Homo sapiens, UniProt Q99683).
The target of assay [20] is each individual kinase of the panel (Homo sapiens, UniProt Q9HCP0).
Assay [21] addresses each individual kinase of the panel (Homo sapiens, UniProt P17948).
Assay [22] addresses each individual kinase of the panel (Homo sapiens, UniProt P11309).
Assay [23] has as its target each individual kinase of the panel (Homo sapiens, UniProt P08922).
For assay [24], the target named is each individual kinase of the panel (Homo sapiens, UniProt P51813).
Assay [25] addresses each individual kinase of the panel (Homo sapiens, UniProt P29322).
The target of assay [26] is each individual kinase of the panel (Homo sapiens, UniProt Q9H2X6).
The target in assay [27] is each individual kinase of the panel (Homo sapiens, UniProt P07948).

Sequence of each individual kinase of the panel (Homo sapiens, UniProt P17948) (P17948 27-1338 limits assumed): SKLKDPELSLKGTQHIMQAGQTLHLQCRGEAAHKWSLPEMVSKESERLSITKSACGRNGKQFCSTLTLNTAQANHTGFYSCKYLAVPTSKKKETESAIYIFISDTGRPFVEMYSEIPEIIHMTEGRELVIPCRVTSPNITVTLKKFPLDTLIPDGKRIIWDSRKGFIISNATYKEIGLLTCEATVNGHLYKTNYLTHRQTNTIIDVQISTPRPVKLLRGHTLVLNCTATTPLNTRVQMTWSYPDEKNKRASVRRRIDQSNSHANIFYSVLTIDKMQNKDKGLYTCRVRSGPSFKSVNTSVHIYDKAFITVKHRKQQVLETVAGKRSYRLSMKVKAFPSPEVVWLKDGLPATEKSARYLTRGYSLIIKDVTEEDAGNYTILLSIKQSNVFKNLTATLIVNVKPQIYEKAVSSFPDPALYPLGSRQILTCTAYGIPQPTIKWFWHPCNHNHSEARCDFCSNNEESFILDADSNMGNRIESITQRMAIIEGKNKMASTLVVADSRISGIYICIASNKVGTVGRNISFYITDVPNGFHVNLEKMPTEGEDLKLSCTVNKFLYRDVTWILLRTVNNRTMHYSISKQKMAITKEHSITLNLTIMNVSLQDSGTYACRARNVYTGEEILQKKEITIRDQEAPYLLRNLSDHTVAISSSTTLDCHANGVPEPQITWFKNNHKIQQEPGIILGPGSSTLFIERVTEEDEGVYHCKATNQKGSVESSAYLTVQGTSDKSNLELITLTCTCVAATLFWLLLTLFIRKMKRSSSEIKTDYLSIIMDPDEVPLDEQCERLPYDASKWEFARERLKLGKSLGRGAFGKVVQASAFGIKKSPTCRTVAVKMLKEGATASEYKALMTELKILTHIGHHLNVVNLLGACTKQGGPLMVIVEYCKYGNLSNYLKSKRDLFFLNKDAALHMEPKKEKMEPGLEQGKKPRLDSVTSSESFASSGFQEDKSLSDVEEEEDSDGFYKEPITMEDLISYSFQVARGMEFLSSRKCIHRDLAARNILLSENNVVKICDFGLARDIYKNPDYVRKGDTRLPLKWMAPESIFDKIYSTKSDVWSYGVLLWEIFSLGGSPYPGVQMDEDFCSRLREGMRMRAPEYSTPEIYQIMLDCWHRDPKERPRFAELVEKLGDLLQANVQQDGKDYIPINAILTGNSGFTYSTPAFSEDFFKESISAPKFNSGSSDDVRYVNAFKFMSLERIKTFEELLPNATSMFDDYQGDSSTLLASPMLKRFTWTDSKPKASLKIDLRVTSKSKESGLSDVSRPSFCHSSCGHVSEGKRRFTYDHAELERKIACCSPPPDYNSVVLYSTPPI
Sequence of each individual kinase of the panel (Homo sapiens, UniProt P08922) (P08922 28-2347 limits assumed): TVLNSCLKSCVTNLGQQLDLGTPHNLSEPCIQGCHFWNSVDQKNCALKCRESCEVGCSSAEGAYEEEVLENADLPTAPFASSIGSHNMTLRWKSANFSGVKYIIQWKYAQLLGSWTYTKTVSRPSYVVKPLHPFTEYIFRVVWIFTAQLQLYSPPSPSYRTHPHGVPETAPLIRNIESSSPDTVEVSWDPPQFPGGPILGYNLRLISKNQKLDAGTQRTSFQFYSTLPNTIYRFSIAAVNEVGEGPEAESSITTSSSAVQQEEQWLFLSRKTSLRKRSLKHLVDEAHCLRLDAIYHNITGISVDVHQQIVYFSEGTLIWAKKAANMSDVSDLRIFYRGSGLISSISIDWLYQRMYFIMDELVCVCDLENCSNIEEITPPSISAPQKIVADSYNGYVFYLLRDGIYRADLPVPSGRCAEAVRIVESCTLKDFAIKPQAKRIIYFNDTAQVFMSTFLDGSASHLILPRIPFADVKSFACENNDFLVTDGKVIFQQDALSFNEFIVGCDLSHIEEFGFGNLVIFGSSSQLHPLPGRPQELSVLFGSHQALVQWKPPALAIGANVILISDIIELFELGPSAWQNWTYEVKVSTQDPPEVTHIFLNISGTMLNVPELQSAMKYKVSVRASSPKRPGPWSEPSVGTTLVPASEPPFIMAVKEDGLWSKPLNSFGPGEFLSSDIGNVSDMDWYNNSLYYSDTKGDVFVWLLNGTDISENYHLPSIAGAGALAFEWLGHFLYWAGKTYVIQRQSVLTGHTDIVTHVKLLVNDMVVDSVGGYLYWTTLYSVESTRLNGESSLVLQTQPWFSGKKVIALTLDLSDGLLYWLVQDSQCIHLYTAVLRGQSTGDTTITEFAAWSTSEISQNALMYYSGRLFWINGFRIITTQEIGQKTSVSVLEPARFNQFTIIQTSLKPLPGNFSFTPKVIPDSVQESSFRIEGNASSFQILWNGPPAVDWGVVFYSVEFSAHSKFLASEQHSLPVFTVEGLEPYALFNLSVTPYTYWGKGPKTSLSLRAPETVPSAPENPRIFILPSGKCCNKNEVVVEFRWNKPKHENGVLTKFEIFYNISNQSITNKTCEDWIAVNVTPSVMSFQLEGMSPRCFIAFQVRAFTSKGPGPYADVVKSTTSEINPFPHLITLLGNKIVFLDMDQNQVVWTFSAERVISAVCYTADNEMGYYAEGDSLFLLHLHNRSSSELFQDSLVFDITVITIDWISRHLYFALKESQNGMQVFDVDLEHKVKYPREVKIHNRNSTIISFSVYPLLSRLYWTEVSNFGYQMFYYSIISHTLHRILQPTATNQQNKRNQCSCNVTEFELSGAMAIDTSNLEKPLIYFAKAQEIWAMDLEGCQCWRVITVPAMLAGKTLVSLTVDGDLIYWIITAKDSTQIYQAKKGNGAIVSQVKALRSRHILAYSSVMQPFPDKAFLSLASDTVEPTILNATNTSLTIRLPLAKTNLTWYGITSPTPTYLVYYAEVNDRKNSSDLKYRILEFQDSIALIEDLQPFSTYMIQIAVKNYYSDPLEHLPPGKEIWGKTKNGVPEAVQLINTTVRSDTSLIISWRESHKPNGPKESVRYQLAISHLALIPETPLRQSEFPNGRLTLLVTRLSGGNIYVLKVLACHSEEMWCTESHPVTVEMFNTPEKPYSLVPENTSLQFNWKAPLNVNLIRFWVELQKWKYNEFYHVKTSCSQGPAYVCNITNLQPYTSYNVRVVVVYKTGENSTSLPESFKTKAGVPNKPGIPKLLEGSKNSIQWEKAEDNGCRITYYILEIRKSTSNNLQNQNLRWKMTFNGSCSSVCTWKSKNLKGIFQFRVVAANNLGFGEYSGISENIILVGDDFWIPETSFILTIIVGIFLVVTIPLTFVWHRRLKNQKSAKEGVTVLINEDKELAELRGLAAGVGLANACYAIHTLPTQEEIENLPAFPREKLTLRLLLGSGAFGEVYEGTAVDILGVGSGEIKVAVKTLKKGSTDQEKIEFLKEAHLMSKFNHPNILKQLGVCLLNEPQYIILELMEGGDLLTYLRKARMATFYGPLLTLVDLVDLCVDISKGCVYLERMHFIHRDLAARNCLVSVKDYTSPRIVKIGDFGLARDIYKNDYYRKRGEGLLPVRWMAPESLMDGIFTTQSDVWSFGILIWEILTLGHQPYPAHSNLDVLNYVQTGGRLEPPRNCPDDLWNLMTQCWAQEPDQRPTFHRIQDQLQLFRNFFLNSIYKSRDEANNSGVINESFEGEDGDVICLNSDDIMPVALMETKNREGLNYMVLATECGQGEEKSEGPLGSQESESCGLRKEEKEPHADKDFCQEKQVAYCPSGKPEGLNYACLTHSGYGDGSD

For the molecule `C#Cc1cccc(Nc2nc3cc(C(=O)O)ccc3c3cncnc23)c1` [drawing 1135], in assay [1], the “MAPKAPK2 percentage of activity” value was −7%. Also, the “EPHB1 percentage of activity” value in assay [2] was determined as 1%. In [3], the “TAK1 percentage of activity” value is −1%. In assay [4], the “PRKd_nM2 percentage of activity” value is reported as −7%. Also, in [5], the “ERK2 percentage of activity” value is given as 5% and the “MAPK2 percentage of activity” value is given as −4%. In assay [6], the “Blk(m) percentage of activity” value is on record as 0%. Further, the “IRAK4 percentage of activity” value in [7] is −19%. For the same molecule, in [8], the “MAP2K7 beta percentage of activity” value is −33%. The “CDK2/cyclinE percentage of activity” value in [9] is given as −13%. Besides, in [10], the “BRK percentage of activity” value is listed as −10%. Moreover, in assay [11], the “INSRR percentage of activity” value was −21%. Moreover, in assay [12], the “MLK1 percentage of activity” value was 20%. In [13], the “p70S6K percentage of activity” value is on record as 20%. Also, in assay [14], the “EGFR(T790M) percentage of activity” value worked out at 8%. Also, the “NEK2 percentage of activity” value in assay [15] came out at 23%. Also, in assay [16], the “MLCK percentage of activity” value is recorded as −3%, the “PDGFRB (V561D) percentage of activity” value is on record as −4% and the “PRKCB2 percentage of activity” value is recorded as 1%. The “ABL1 percentage of activity” value in [17] came out at 9%. Moreover, in assay [18], the “ERBB4 percentage of activity” value is −26%. Also, the “ASK percentage of activity” value in assay [19] is reported as −16%. Also, the “CK1 gamma 1 percentage of activity” value in assay [20] is −5%. Besides, the “FLT1 percentage of activity” value in [21] is given as 5%. Besides, the “PIM1 percentage of activity” value in [22] was determined as 73%. Also, the “ROS percentage of activity” value in assay [23] is on record as −10%. Further, in assay [24], the “BMX percentage of activity” value was −18%. Further, the “EPHA8 percentage of activity” value in assay [25] was −15%.

Regarding `NC(=O)c1ccc2c(c1)nc(Nc1cccc(Cl)c1)c1ccncc12` [drawing 1138], the “MAPKAPK2 percentage of activity” value in [1] is −2%. Also, the “TAK1 percentage of activity” value in [3] is reported as 12%. Besides, the “PRKd_nM2 percentage of activity” value in assay [4] is 25%. Further, the “ERK2 percentage of activity” value in assay [5] stood at 15%. For the same molecule, in assay [7], the “IRAK4 percentage of activity” value stood at 12%. For the same molecule, the “MAP2K7 beta percentage of activity” value in assay [8] amounted to 12%. The “CDK2/cyclin A percentage of activity” value in [9] stood at 53%. In assay [26], the “HIPK2 percentage of activity” value is recorded as 89%. In addition, the “MLK1 percentage of activity” value in assay [12] is 49%. Also, the “p70S6K percentage of activity” value in assay [13] was 8%. For the same molecule, the “EGFR(T790M) percentage of activity” value in assay [14] stood at 43%. Moreover, the “NEK2 percentage of activity” value in assay [15] was 13%. In addition, the “LYN percentage of activity” value in [27] was 16%. Further, in [17], the “ABL1 percentage of activity” value turned out to be 14%. The “ERBB4 percentage of activity” value in assay [18] worked out at 33%. Also, the “ASK percentage of activity” value in [19] came to 2%. The “CK1 gamma 1 percentage of activity” value in assay [20] is recorded as 7%. For the same molecule, the “FLT1 percentage of activity” value in [21] is reported as 19%. The “PIM1 percentage of activity” value in [22] was determined as 18%. Further, in assay [23], the “ROS percentage of activity” value is −3%.
